In patent publication US20190255146A1, “POLYPEPTIDES FOR IMPROVED RESPONSE TO ANTI-CANCER THERAPY” (MUSC FOUNDATION FOR RESEARCH DEVELOPMENT, priority 2016, published 2019):

Experiments:
UM-SCC-22A cells [1] = test: Mitophagy in UM-SCC-22A cells (live cell imaging, colocalization of LTG and MTR); type: cell-based
Experimental: Laser scanning confocal microscopy. For live cell imaging, cultured cells were incubated with 500 nM of mitotracker […] and 500 nM lysotracker green in DMSO for 30 min at 37° C. […] An Olympus FV10i confocal microscope was used for imaging. 543- and 488-nm channels were used for visualizing red or green fluorescence, respectively, with pinholes set to 1.0 Airy units. At least three random fields were imaged for each sample ([…] et al, 2012).

Drp1 [2] = molecular target: T1, Drp1 (Homo sapiens, UniProt O00429); test: Drp1 recruitment to mitochondria in HPV(−) UM-SCC-22A cells (Western blotting of mitochondria-enriched fractions); type: cell-based; settings: 5 uM peptide, 20 uM C18-pyr-cer, 1.5 hours
T1 construct: Western blotting using whole cell (UM-SCC-22A) lysates versus mitochondria-enriched fractions; endogenous in cells; host or cells: UM-SCC-22A
T1 sequence (O00429 whole entry): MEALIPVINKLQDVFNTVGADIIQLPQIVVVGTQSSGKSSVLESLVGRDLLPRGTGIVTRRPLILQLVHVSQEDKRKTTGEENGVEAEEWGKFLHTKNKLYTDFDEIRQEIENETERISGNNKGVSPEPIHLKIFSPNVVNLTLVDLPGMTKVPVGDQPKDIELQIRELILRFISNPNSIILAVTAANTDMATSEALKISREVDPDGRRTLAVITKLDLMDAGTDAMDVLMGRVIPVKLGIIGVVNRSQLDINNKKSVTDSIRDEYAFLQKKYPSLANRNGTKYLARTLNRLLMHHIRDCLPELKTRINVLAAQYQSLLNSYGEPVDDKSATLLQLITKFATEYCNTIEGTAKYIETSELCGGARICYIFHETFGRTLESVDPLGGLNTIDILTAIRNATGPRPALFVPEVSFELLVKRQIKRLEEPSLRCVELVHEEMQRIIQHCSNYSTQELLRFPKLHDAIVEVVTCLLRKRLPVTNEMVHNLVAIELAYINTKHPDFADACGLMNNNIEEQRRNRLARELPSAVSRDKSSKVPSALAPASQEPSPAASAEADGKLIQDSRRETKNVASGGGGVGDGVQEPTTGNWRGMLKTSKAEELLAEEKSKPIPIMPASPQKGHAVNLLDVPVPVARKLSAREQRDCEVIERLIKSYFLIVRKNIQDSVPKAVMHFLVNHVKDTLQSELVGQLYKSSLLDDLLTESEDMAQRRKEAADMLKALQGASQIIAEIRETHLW
Experimental: (§1) Images were quantified using FIJI.
(§2) Immunoblotting. Cells were lysed in RIPA buffer plus protease inhibitor cocktail on ice for 15 minutes then centrifuged. 30ug of protein from the supernatant were run on Criterion™ TGX™ Precast Gels (Bio-Rad).
Cell fractionation. Cells were treated with 40 uM cisplatin or vehicle for eight hours, 20 uM C18-pyr-cer or vehicle and/or 5 uM scr-pept or E2F5-pept for 1.5 hours. Mitochondria isolation kit (ThermoFisher Scientific) was used as described by the manufacturer.

[3] = tested on: UM-SCC-22A xenograft-derived tumors; settings: peptide plus cisplatin versus Scr-pept with/without cisplatin
Excerpt: Data are means±SD from three independent experiments. *p<0.05 as determined by Student's t test. […] Data are means±SD from three independent experiments. *p<0.05 as determined by Student's t test. […] Data are means±SD from three independent experiments. *p<0.05 as determined by Student's t test.
(§3) In vivo studies. Severe combined immunodeficient (SCID) mice were purchased from Jackson Laboratories. Age- and sex-matched mice were used. All animal protocols were approved by the Institutional Animal Care and Use Committee at the Medical University of South Carolina. UM-SCC22A or UM-SCC47 cells (75,000) were implanted into the flanks of SCID mice (n=5-8 mice). When the tumors were palpable, the mice were treated every three days with 3.5 mg/kg cisplatin, 20 mg/kg C18-pyr-cer, or corresponding amount of vehicle control and/or 3.76 μg E2F5-peptide or scrambled control peptide. Tumor volume was measured using calipers. At the end of the 14-day treatment, the mice were euthanized and tumor tissues were collected (Sentelle et al, 2007; Saddoughi et al, 2013).

UM-SCC-22A cells [4] = tested on: UM-SCC-22A cells
Experimental: Trypan blue exclusion assay. Cells were seeded in 6-well plates, and allowed to adhere for 20 h. After treatments (for 24 h), medium containing dead cells was pelleted with trypsinized cells, then re-suspended in 1× PBS then counted in a hemocytometer after addition of trypan blue dye (Sigma-Aldrich) at a 1:10 dilution.

[5] = tested on: UM-SCC-22A-derived xenograft tumors; test: HPV(−) UM-SCC-22A-derived xenograft tumor growth in SCID mice; type: in vivo; settings: UM-SCC-22A xenografts, 3.76 μg peptide, absence/presence of cisplatin 3.5 mg/kg every 3 days for 2 weeks
Experimental: To determine whether HPV(+) compared to HPV(−) HNSCC cells are more sensitive to stress-mediated growth inhibition in response to chemotherapeutic drugs, it was first established HPV(+) UM-SCC-47- and HPV(−) UM-SCC-22A-derived xenograft tumors in SCID mice. After the xenograft-derived tumors were ˜75-100 mm^3, the mice were treated with cisplatin (3.5 mg/kg) for two weeks, which is below its maximum tolerated doses (van Moorsel et al, 1999). Then, tumor volumes were measured at days 0 and 14 of treatment. […] After tumor growth measurements in the mice were taken, the tumors were surgically removed and the effects of cisplatin on CerS1-6 mRNA were measured by qRT-PCR.
Eight arginine residues (R8) were included on the N-terminus to enhance cell penetration of the E2F5 peptide (Rancher and Ryu, 2015).
as §3

Drp1-E2F5 complex [6] = molecular target: T2, Drp1-E2F5 complex (Homo sapiens, UniProt O00429); test: Drp1-E2F5 association by PLA in tumor tissue sections; type: in vivo, mice; settings: peptide plus cisplatin versus Scr-pept with/without cisplatin
T2 construct: from tissue; host or cells: UM-SCC-22A xenograft tumours grown in SCID mice
T2 sequence (O00429 whole entry, one chain of several): as the sequence (O00429 whole entry) above
Experimental: as §1
(§4) Proximity ligation assay. Proximity ligation assays were performed using Duolink in situ red kit (Sigma) per manufacturer's instructions, then analyzed as described (Panneer-Selvam et al, 2015).
In vivo studies. […] Age- and sex-matched mice were used. […] Tumor volume was measured using calipers.

Drp1-E2F5 complex [7] = test: Drp1-E2F5 association in UM-SCC-47 cells (PLA, co-immunoprecipitation); type: cell-based
Experimental: as §4
Co-immunoprecipitation. Cells were lysed in 500 ul Pierce™ IP lysis/wash buffer (ThermoFisher) with protease inhibitor cocktail (Sigma) on ice for 15 minutes. 350 μg of protein were used with SureBeads™ Protein A Magnetic Beads (BioRad) per manufacturer's instructions, using 10 μg antibody or corresponding normal IgG control (SCBT).

Drp1 [8] = test: Drp1 oligomerization by Western blotting without reducing agents; type: cell-based; settings: HPV(+) UM-SCC47 cells
Experimental: FIGS. 7A-F. E2F5/Drp1 complex enhances HPV-E7/ceramide-dependent lethal mitophagy. (A) UM-SCC47 cells were treated with cisplatin or C18-pyr-cer and Western blotting was performed with cell lysates in the absence of reducing agents in the lysing buffer to detect monomeric and dimeric Drp1 protein abundance compared to vehicle-treated controls. Actin was used as a loading control. (B-C) Cell death was assessed by trypan blue exclusion assay in UM-SCC47 cells expressing dominant-negative Drp1 mutant (K38A-DRP1) and treated with C18-pyr-cer (B) or cisplatin (C) compared to vector-transfected controls. […] (D-E) Association between E2F5 and Drp1 in response to ceramide stress (C18-pyr-cer) was measured in UM-SCC-47 cells using PLA (D) or immunoprecipitation followed by Western blotting (E) with anti-Drp1 or anti-E2F5 antibodies. IgG was used as a control. […] PLA signals were quantified as described by the manufacturer using the PLA quantification software. […] Effects of siRNA-mediated HPV-E6/E7 knockdown on pRB, HPV-E7 and p53 protein abundance were also confirmed by Western blotting compared to Scr-siRNA-transfected controls in the absence/presence of C18-pyr-cer (right panel). Total RB was used a loading control (Rb band, upper panel).
Immunoblotting. Cells were lysed in RIPA buffer plus protease inhibitor cocktail on ice for 15 minutes then centrifuged. […]

UM-SCC-22A cells [9] = test: Growth inhibition in culture, IC50 determination by MTT assay; type: cell-based; settings: UM-SCC-22A (HPV−) cells, 48 h; read-out: IC50 (concentration that inhibited growth by 50%)
Experimental: (§5) IC50 determination by MTT assay. Cells were plated in 96-well plates and allowed to adhere for 20 h, then treated with the indicated concentrations of drug. After 48 h treatment, the MTT assay (ATCC) was performed as described previously (Sentelle et al, 2012).

UM-SCC-47 cells [10] = test: as above; type: cell-based
Experimental: as §5

UM-SCC-47 cells [11] = test: Mitophagy in UM-SCC-47 cells (Sea Horse oxygen consumption rate, TEM); type: cell-based
Experimental: Measurement of cellular respiration using Seahorse XF analyzer. Cells were plated in a Seahorse Biosciences 96-well plate and allowed to adhere for 20 hours. They were then treated with 20 uM C18-pyr-cer or equivalent amount of vehicle (EtOH) for two hours, then oxygen consumption rate was measured using a Seahorse XF96 (Seahorse Biosciences) as described by the manufacturer (Sentelle et al, 2012).
Ultra-structure analysis using transmission electron microscopy.

Drp1 [12] = test: Drp1 recruitment to mitochondria in HPV(+) UM-SCC-47 cells (Western blotting of mitochondria-enriched fractions); type: cell-based
Experimental: (§6) FIGS. 9A-D. E2F5 enhances Drp1 translocation to mitochondria and association with MFF to induce HPV-E7/ceramide-dependent mitophagy. (A) Effects of stable knockdown of E2F5 using shRNA on DRP1-MFF association with/without C18-pyr-cer were measured by PLA using anti-DRP1 and anti-MFF antibodies compared to Scr-shRNA-transfected UM-SCC-47 controls. […] (B) HPV(−) UM-SCC1A cells transiently transfected with exogenous E2F5 or empty vector (vec) were used to measure the association between Drp1 and MFF in the absence/presence of ceramide stress by PLA using anti-DRP1 and anti-MFF antibodies. […] (C) Effects of shRNA-mediated E2F5 knockdown on Drp1 localization to mitochondria in the absence/presence of C18-pyr-cer were assessed in whole cell lysates (UM-SCC-47) versus mitochondria-enriched fractions using Western blotting. (D) Effects of transient reconstitution of E2F5^WT or E2F5^Δ84-177 proteins in UM-SCC47 cells, which were stably transfected with E2F5-shRNA, on Drp1 abundance, were measured by Western blotting using anti-Drp1 antibody, in whole cell lysates versus mitochondria-enriched fractions.
as §2
Cell fractionation. […]

Drp1-MFF association = Drp1-MFF association by PLA in UM-SCC47 cells; type: cell-based
Experimental: as §6, §4

Substance	C18-pyr-cer-induced mitophagy (colocalization of LTG and MTR) (UM-SCC-22A cells [1]; peptide plus C18-pyr-cer)	ceramide-induced Drp1 recruitment to mitochondria (Drp1 [2])	mitophagy in tumors (TEM) [3]	C18-pyr-cer-induced cell death (UM-SCC-22A cells [4]; peptide plus C18-pyr-cer, compared to scr-pept)	cisplatin-induced cell death (UM-SCC-22A cells [4]; peptide plus cisplatin, compared to scr-pept)	peptide-enhanced cell death under shRNA-mediated Drp1 knockdown (UM-SCC-22A cells [4]; with/without C18-pyr-cer)	tumor growth [5]	co-localization of Drp1 and E2F5 in tumors (PLA) (Drp1-E2F5 complex [6])	lethal mitophagy in HPV(−) cells (UM-SCC-22A cells [1]; 5-10 μM, 24-48 h)	Drp1-E2F5 association by PLA (Drp1-E2F5 complex [7]; versus controls)	Drp1-E2F5 association by co-immunoprecipitation (Drp1-E2F5 complex [7]; versus vehicle control)	Drp1 oligomerization and/or activation (Drp1 [8])	IC50 (UM-SCC-22A cells [9]) [µM]	IC50 (UM-SCC-47 cells [10]; UM-SCC-47 (HPV+) cells, 48 h, read-out: IC50 (concentration that inhibited growth by 50%)) [µM]	sensitivity for drug-induced growth inhibition/cell death, UM-SCC-47 compared to UM-SCC-22A cells (UM-SCC-47 cells [10]; cells in culture) [fold]	number of mitochondria and autophagosomes by TEM (UM-SCC-47 cells [11]; HPV(+) UM-SCC-47 compared to HPV(−) UM-SCC-22A cells)	mitophagy detected by decreased oxygen consumption rate (UM-SCC-47 cells [11]; UM-SCC-47 cells, Sea Horse, versus vehicle)	recruitment of Drp1 to mitochondria (Drp1 [12])	Drp1-MFF association by PLA (Drp1-MFF association)
Biotin-RRRRRRRR-ELDQQKLWLQQSIKNVMDDSINNRFSYVTHED [E2F5-pept]	enhanced C18-pyr-cer-induced mitophagy	enhanced ceramide-induced Drp1 recruitment to mitochondria	increased mitophagy	largely increased	largely increased	attenuated	almost completely inhibited tumor growth	increased	–	–	–	–	–	–	–	–	–	–	–
C18-pyridinium-ceramide [C18-pyr-cer]	–	–	–	–	–	–	–	–	induces lethal mitophagy	increased Drp1-E2F5 association	increased association between Drp1 and E2F5	Drp1 oligomerization and/or activation was observed	5	1.6	~3	a decreased number mitochondria and an increased number of autophagosomes	increased mitophagy	induced recruitment of Drp1 to mitochondria	induced Drp1-MFF association
